Our source for the GI50 and TGI values is PubChem BioAssay (NCI).

Structures are written as SMILES.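 96-well plates; 48 h exposure; 5 concentrations. Endpoints by linear interpolation between flanking doses. Not reached: highest tested concentration assigned. GI50 = concentration required for 50% inhibition of growth. TGI: total growth inhibition.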

Among the test systems are 786-0 renal; COLO 205 colon; HCT-15 colon; HT29 colon; KM12 colon; NCI-H460 lung; PC-3 prostate; SK-MEL-5 melanoma; SK-OV-3 ovarian; TK-10 renal.
Experiment in all cases: inhibition of tumour cell growth, NCI panel, 48 h

For `Nc1ccc(N=Nc2ccccc2)c(N)n1`, the GI50 in the experiment on 786-0 renal was 20.8 µM; with COLO 205 colon, 26.1 µM; in the experiment on HCT-15 colon, 35.8 µM; with HT29 colon it was 34.5 µM; in the experiment on KM12 colon, 15.5 µM; in the experiment on NCI-H460 lung, 29.1 µM. Moreover, the GI50 in the experiment with PC-3 prostate is 21.7 µM; in the experiment on SK-MEL-5 melanoma, 26.3 µM; with SK-OV-3 ovarian it was 30.1 µM; in the experiment with TK-10 renal it was 41.2 µM. For the same compound, the TGI in the experiment with 786-0 renal is 44.4 µM; in the experiment with COLO 205 colon, 72.8 µM; in the experiment with HCT-15 colon, > 100 µM; in the experiment on HT29 colon, > 100 µM; in the experiment on KM12 colon it was 56.6 µM; with NCI-H460 lung, 97.4 µM. Besides, the TGI with PC-3 prostate, with SK-MEL-5 melanoma, with SK-OV-3 ovarian and with TK-10 renal was > 100 µM in each case.
For the compound `CCN(CC)CCOc1ccc(Nc2ncc3cc(-c4c(Cl)cccc4Cl)c(=O)n(CCOC)c3n2)cc1`, the GI50 was 0.0324 µM in the experiment on 786-0 renal; 0.148 µM in the experiment with COLO 205 colon; 0.128 µM with HCT-15 colon; 0.105 µM in the experiment with HT29 colon; 0.655 µM in the experiment with KM12 colon; 0.562 µM with NCI-H460 lung. The GI50 in the experiment on PC-3 prostate is 3.49 µM; with SK-MEL-5 melanoma, 1.51 µM; in the experiment on SK-OV-3 ovarian, 0.064 µM; in the experiment on TK-10 renal it was 0.0785 µM. The TGI in the experiment with 786-0 renal amounted to 5.28 µM; in the experiment with COLO 205 colon it was 2.43 µM; in the experiment on HCT-15 colon it was 6.1 µM; with HT29 colon, 2.27 µM; with KM12 colon, 7.64 µM; with NCI-H460 lung, 4.77 µM. For the same compound, the TGI with PC-3 prostate is 18.6 µM; in the experiment on SK-MEL-5 melanoma it was 5.94 µM; in the experiment on SK-OV-3 ovarian it was 7.35 µM; in the experiment with TK-10 renal it was 0.832 µM.
`COc1cc(C(=O)/C=C/c2c(-c3ccc(F)cc3)nc3sc(C)cn23)cc(OC)c1OC`: the GI50 was 8.88 µM with 786-0 renal; 4.94 µM in the experiment with COLO 205 colon; 3.75 µM in the experiment on HCT-15 colon; 6.96 µM in the experiment on HT29 colon; 3.63 µM in the experiment with KM12 colon; 3.87 µM in the experiment with NCI-H460 lung. The GI50 in the experiment on PC-3 prostate is 2.41 µM; in the experiment with SK-MEL-5 melanoma, 0.516 µM; with SK-OV-3 ovarian it was 6.12 µM; in the experiment on TK-10 renal, 28 µM. For the same compound, the TGI in the experiment with 786-0 renal, in the experiment with COLO 205 colon, in the experiment on HCT-15 colon, with HT29 colon, with KM12 colon and in the experiment with NCI-H460 lung was > 100 µM in each case. For the same compound, the TGI in the experiment on PC-3 prostate was > 100 µM; in the experiment with SK-MEL-5 melanoma it was 1.98 µM; in the experiment with SK-OV-3 ovarian, > 100 µM; with TK-10 renal, > 100 µM.
On to `COc1cc2c(c(OC)c1OC)-c1ccc(NNC(=S)N(Cc3cccc(C[N+](Cc4cccc(CNC56CC7CC(CC(C7)C5)C6)c4)(Cc4cccc(CNC56CC7CC(CC(C7)C5)C6)c4)Cc4cccc(CN(C(=S)NNc5ccc6c(cc5=O)[C@@H](NC(C)=O)CCc5cc(OC)c(OC)c(OC)c5-6)C56CC7CC(CC(C7)C5)C6)c4)c3)C34CC5CC(CC(C5)C3)C4)c(=O)cc1[C@@H](NC(C)=O)CC2` (stereo not given in full), for which the GI50 with 786-0 renal was 1.3 µM; in the experiment on COLO 205 colon it was 0.683 µM; with HCT-15 colon it was 1.56 µM; in the experiment on HT29 colon, 0.958 µM; in the experiment with KM12 colon, 1.08 µM; in the experiment with NCI-H460 lung it was 1.22 µM. Besides, the GI50 was 1.45 µM in the experiment on PC-3 prostate, 0.81 µM in the experiment with SK-MEL-5 melanoma, 3 µM with SK-OV-3 ovarian and 3.66 µM in the experiment on TK-10 renal. The TGI with 786-0 renal worked out at 5.28 µM; in the experiment with COLO 205 colon it was 1.52 µM; with HCT-15 colon it was 5.96 µM; in the experiment with HT29 colon, 2.81 µM; in the experiment with KM12 colon it was 4.52 µM; with NCI-H460 lung it was 3.79 µM. The TGI in the experiment on PC-3 prostate turned out to be 5.64 µM; in the experiment on SK-MEL-5 melanoma, 2.25 µM; in the experiment on SK-OV-3 ovarian, 7.51 µM; in the experiment with TK-10 renal, 8.34 µM.
`NC(=O)C(Br)CBr` (stereo not given): the GI50 in the experiment on 786-0 renal is 5.65 µM; in the experiment with COLO 205 colon, 1.03 µM; in the experiment on HCT-15 colon, 1.46 µM; in the experiment with HT29 colon, 1.59 µM; in the experiment with KM12 colon, 7.63 µM; in the experiment with NCI-H460 lung, 3.56 µM. Also, the GI50 in the experiment with PC-3 prostate is 2.51 µM; with SK-MEL-5 melanoma it was 4.08 µM; in the experiment with SK-OV-3 ovarian it was 12 µM; in the experiment on TK-10 renal, 2.24 µM. Besides, the TGI with 786-0 renal amounted to 16.1 µM; in the experiment with COLO 205 colon, 2.56 µM; in the experiment with HCT-15 colon it was 3.39 µM; in the experiment with HT29 colon it was 9.42 µM; with KM12 colon, 21 µM; in the experiment on NCI-H460 lung, 13.5 µM. Further, the TGI with PC-3 prostate came out at 11.7 µM; in the experiment with SK-MEL-5 melanoma, 14.3 µM; with SK-OV-3 ovarian, 25.1 µM; in the experiment with TK-10 renal it was 6.33 µM.
With `NS(=O)(=O)c1ccc(C2C3=C(CCCC3=O)OC3=C2C(=O)c2ccccc2C3=O)cc1` (stereo not given), the GI50 with 786-0 renal is 1.64 µM; in the experiment with COLO 205 colon it was 0.348 µM; with HCT-15 colon, 1.33 µM; in the experiment with HT29 colon, 1.07 µM; with KM12 colon, 1.22 µM; in the experiment on NCI-H460 lung, 0.589 µM. Further, the GI50 in the experiment with PC-3 prostate is 0.371 µM; in the experiment with SK-MEL-5 melanoma it was 1.18 µM; in the experiment with SK-OV-3 ovarian, 1.99 µM; with TK-10 renal it was 1.78 µM. Further, the TGI was found to be 3.02 µM in the experiment on 786-0 renal; 1.29 µM in the experiment with COLO 205 colon; 3.46 µM in the experiment with HCT-15 colon; 5.17 µM in the experiment on HT29 colon; 3.27 µM in the experiment with KM12 colon; 2.12 µM in the experiment with NCI-H460 lung. In addition, the TGI in the experiment with PC-3 prostate was 1.33 µM; with SK-MEL-5 melanoma it was 2.43 µM; in the experiment with SK-OV-3 ovarian it was 3.76 µM; with TK-10 renal, 3.17 µM.
As for `CC1=C(SCc2ccccc2)C(=O)c2ccccc2C1=O`, the TGI with 786-0 renal was 30.9 µM; in the experiment on COLO 205 colon it was 38.9 µM; in the experiment on HCT-15 colon, 43.5 µM; in the experiment on HT29 colon, 90.2 µM; in the experiment on KM12 colon it was 35.7 µM; with NCI-H460 lung, 51.6 µM. Also, the TGI in the experiment with PC-3 prostate came to 37.3 µM; with SK-MEL-5 melanoma, 31 µM; with SK-OV-3 ovarian it was 44.6 µM; in the experiment with TK-10 renal, 36.9 µM.
Regarding `CN(C)/C=C/c1nnnn1-c1ccc(Cl)cc1`, the GI50 with 786-0 renal was 14.8 µM; in the experiment with COLO 205 colon, 28.2 µM; in the experiment on HCT-15 colon, 5.04 µM; with HT29 colon, 20.2 µM; with KM12 colon, 22 µM; in the experiment on NCI-H460 lung it was 16.9 µM. Further, the GI50 in the experiment on PC-3 prostate was 6.76 µM; with SK-MEL-5 melanoma, 15 µM; in the experiment with SK-OV-3 ovarian, 24.1 µM; with TK-10 renal it was 25.4 µM. The TGI in the experiment with 786-0 renal stood at 56.3 µM; in the experiment on COLO 205 colon, 58.7 µM; with HCT-15 colon it was 80 µM; in the experiment with HT29 colon, 45 µM; in the experiment with KM12 colon, 64.8 µM; with NCI-H460 lung, 37.3 µM. Besides, the TGI in the experiment on PC-3 prostate was found to be 35.5 µM; with SK-MEL-5 melanoma it was 35.4 µM; in the experiment with SK-OV-3 ovarian, 81.6 µM; with TK-10 renal, 80.4 µM.
Consider `COc1ccc(Nc2ccnc(NCCNc3ccnc4cc(Cl)ccc34)n2)cc1`, for which the GI50 in the experiment on 786-0 renal was 1.87 µM; with COLO 205 colon it was 1.45 µM; with HCT-15 colon, 1.23 µM; in the experiment with HT29 colon it was 0.546 µM; with KM12 colon, 3.72 µM; in the experiment on NCI-H460 lung, 2.36 µM. For the same compound, the GI50 with PC-3 prostate was 1.85 µM; in the experiment on SK-MEL-5 melanoma it was 1.55 µM; with SK-OV-3 ovarian, 7.21 µM; in the experiment on TK-10 renal, 3.33 µM. Moreover, the TGI is 4.33 µM in the experiment with 786-0 renal; 3.24 µM in the experiment on COLO 205 colon; 4.03 µM with HCT-15 colon; 8.28 µM in the experiment on HT29 colon; 15.2 µM in the experiment with KM12 colon; 12.8 µM in the experiment on NCI-H460 lung. Further, the TGI in the experiment with PC-3 prostate is 16 µM; in the experiment with SK-MEL-5 melanoma it was 2.95 µM; in the experiment on SK-OV-3 ovarian, 20.5 µM; in the experiment on TK-10 renal, 10.5 µM.
For `N#Cc1cccc(C(=O)c2cnn(-c3ccc(F)cc3)c2N)c1`, the GI50 in the experiment on 786-0 renal, in the experiment on COLO 205 colon, in the experiment on HCT-15 colon, in the experiment on HT29 colon, with KM12 colon and in the experiment on NCI-H460 lung was > 25 µM throughout. Further, the GI50 in the experiment on PC-3 prostate, in the experiment with SK-MEL-5 melanoma, in the experiment on SK-OV-3 ovarian and with TK-10 renal was > 25 µM in each case. The TGI with 786-0 renal, with COLO 205 colon, in the experiment on HCT-15 colon, in the experiment with HT29 colon, with KM12 colon and in the experiment with NCI-H460 lung was > 25 µM throughout. Besides, the TGI with PC-3 prostate, in the experiment with SK-MEL-5 melanoma, with SK-OV-3 ovarian and in the experiment on TK-10 renal was > 25 µM throughout.
In the case of `C=C1C(=O)O[C@H]2[C@H]1CC/C(CNC(=O)/C=C/c1cccc(OC)c1)=C\CC[C@@]1(C)O[C@@H]21`, the GI50 with 786-0 renal was 1.54 µM; in the experiment with COLO 205 colon, 1.34 µM; in the experiment with HCT-15 colon it was 1.05 µM; in the experiment with HT29 colon, 1.22 µM; in the experiment on KM12 colon, 5.8 µM; with NCI-H460 lung, 2.51 µM. For the same compound, the GI50 was 1.8 µM in the experiment on PC-3 prostate, 1.69 µM with SK-MEL-5 melanoma, 11.2 µM with SK-OV-3 ovarian and 1.15 µM in the experiment with TK-10 renal. Besides, the TGI is 3.58 µM in the experiment with 786-0 renal; 2.85 µM in the experiment on COLO 205 colon; 2.54 µM in the experiment on HCT-15 colon; 2.81 µM in the experiment on HT29 colon; 20.5 µM with KM12 colon; 7.05 µM in the experiment with NCI-H460 lung. The TGI in the experiment with PC-3 prostate is 3.86 µM; in the experiment with SK-MEL-5 melanoma it was 3.18 µM; with SK-OV-3 ovarian it was 23.3 µM; in the experiment on TK-10 renal it was 2.5 µM.
